Where two headings read alike, the source gives them in different places.
How the values were obtained:
Test in all cases: Sensitivity test (agar dilution), clinical isolate
P. aeruginosa 13285 = format: cell-based, Pseudomonas aeruginosa
Experimental: (§1) In addition, the antibacterial activities were tested against strains which are comparatively less sensitive to β-lactam compounds, namely clinically isolated 13 strains of Acinetobacter calcoaceticus and Acinetobacter lwoffi, clinically isolated 11 strains of Serratia marcescens, clinically isolated 12 strains of Burkholderia cepacia, and clinically isolated 15 strains of Pseudomonas aeruginosa.
(§2) According to the standard method of Japan Chemotherapeutic Society (Chemotherapy, vol. […], p 76-79 (1981)) the test was carried out using the agar dilution method. After dissolving test samples in distilled water, agar medium containing the test samples was prepared in such a manner that the final concentration became twice serial dilution by pouring serially diluted combination drug solution or a single drug solution into agar medium. As agar medium was used Mueller Hinton Agar medium (MHA). Then, each strain was cultivated over night at 37° C. in an incubator and suspended in buffered saline solution with gelatin (BSG) in the concentration of about 10^6 CFU/ml. The suspension (about 5 μl) containing test strains was inoculated to the medium containing the test samples by Micro Planter.
(§3) Each drug was weighed, and dissolved in distilled water to give a test sample. When the drugs are used in combination, two kinds of solution containing each drug were mixed so as to be various ratio of concentration to give a mixed solution. When the sample is subjected to sensitivity test, this mixed solution was diluted by twice serial dilution method.
(§4) Furthermore, when the drug is solely used, each test sample was used as it is, and diluted by twice serial dilution method from the maximum concentration to the minimum concentration.

P. aeruginosa 13269 = format: cell-based, Pseudomonas aeruginosa
Experimental: as §1, §2, §3, §4

P. aeruginosa 15032 = format: cell-based, Pseudomonas aeruginosa
Experimental: as §1, §2, §3, §4

P. aeruginosa 15039 = format: cell-based, Pseudomonas aeruginosa
Experimental: as §1, §2, §3, §4

P. aeruginosa 15036 = format: cell-based, Pseudomonas aeruginosa
Experimental: as §1, §2, §3, §4

P. aeruginosa 12789 = format: cell-based, Pseudomonas aeruginosa
Experimental: as §1, §2, §3, §4

P. aeruginosa 13272 = format: cell-based, Pseudomonas aeruginosa
Experimental: as §1, §2, §3, §4

P. aeruginosa 12790 = format: cell-based, Pseudomonas aeruginosa
Experimental: as §1, §2, §3, §4

P. aeruginosa 13280 = format: cell-based, Pseudomonas aeruginosa
Experimental: as §1, §2, §3, §4

P. aeruginosa 13245 = format: cell-based, Pseudomonas aeruginosa
Experimental: as §1, §2, §3, §4

P. aeruginosa 15040 = format: cell-based, Pseudomonas aeruginosa
Experimental: as §1, §2, §3, §4

P. aeruginosa 13224 = format: cell-based, Pseudomonas aeruginosa
Experimental: as §1, §2, §3, §4

Acinetobacter spp. 1195 = format: cell-based, Acinetobacter calcoaceticus and Acinetobacter lwoffi
Experimental: as §1, §2, §3, §4

[1] = system: Acinetobacter spp. 1398-2; format: cell-based, Acinetobacter calcoaceticus and Acinetobacter lwoffi
Experimental: as §1, §2, §3, §4

[2] = system: Acinetobacter spp. 1399-2; format: cell-based, Acinetobacter calcoaceticus and Acinetobacter lwoffi
Experimental: as §1, §2, §3, §4

Measured: MIC

C[C@@H](O)[C@H]1C(=O)N2C(C(=O)O)=C(S[C@@H]3CN[C@H](C(=O)N(C)C)C3)[C@H](C)[C@H]12 [MEPM, meropenem]
0.25 µg/mL: Acinetobacter spp. 1195; SPP.1195, Concomitant (ME:SM = 1:1), read-out: MIC | Acinetobacter spp. 1195; SPP.1195, Concomitant (ME:SM = 2:1), read-out: MIC | Acinetobacter spp. 1195; SPP.1195, alone, read-out: MIC | [2]; SPP.13992, Concomitant (ME:SM = 1:4)
0.5 µg/mL: P. aeruginosa 12789; Pseudomonas aeruginosa, 12789, Concomitant (ME:SM = 1:1) | P. aeruginosa 12789; Pseudomonas aeruginosa, 12789, Concomitant (ME:SM = 1:2) | P. aeruginosa 12789; Pseudomonas aeruginosa, 12789, Concomitant (ME:SM = 1:4) | P. aeruginosa 12789; Pseudomonas aeruginosa, 12789, Concomitant (ME:SM = 2:1) | P. aeruginosa 12789; Pseudomonas aeruginosa, 12789, alone | [2]; SPP.13992, Concomitant (ME:SM = 1:1) | [2]; SPP.13992, Concomitant (ME:SM = 1:2) | [2]; SPP.13992, Concomitant (ME:SM = 2:1) | [2]; SPP.13992, alone
4 µg/mL: P. aeruginosa 13285; Pseudomonas aeruginosa, 13285, Concomitant (ME:SM = 1:1) | P. aeruginosa 13285; Pseudomonas aeruginosa, 13285, Concomitant (ME:SM = 1:2) | P. aeruginosa 13285; Pseudomonas aeruginosa, 13285, Concomitant (ME:SM = 1:4) | P. aeruginosa 13285; Pseudomonas aeruginosa, 13285, Concomitant (ME:SM = 2:1) | P. aeruginosa 13285; Pseudomonas aeruginosa, 13285, alone | P. aeruginosa 13269; Pseudomonas aeruginosa, 13269, Concomitant (ME:SM = 1:1) | P. aeruginosa 13269; Pseudomonas aeruginosa, 13269, Concomitant (ME:SM = 2:1) | P. aeruginosa 13269; Pseudomonas aeruginosa, 13269, alone | P. aeruginosa 15039; Pseudomonas aeruginosa, 15039, Concomitant (ME:SM = 1:4) | P. aeruginosa 13272; Pseudomonas aeruginosa, 13272, Concomitant (ME:SM = 1:1) | P. aeruginosa 13272; Pseudomonas aeruginosa, 13272, Concomitant (ME:SM = 2:1) | P. aeruginosa 13272; Pseudomonas aeruginosa, 13272, alone | P. aeruginosa 13280; Pseudomonas aeruginosa, 13280, Concomitant (ME:SM = 1:1) | P. aeruginosa 13280; Pseudomonas aeruginosa, 13280, Concomitant (ME:SM = 1:2) | P. aeruginosa 13280; Pseudomonas aeruginosa, 13280, Concomitant (ME:SM = 1:4) | P. aeruginosa 15040; Pseudomonas aeruginosa, 15040, Concomitant (ME:SM = 1:1) | P. aeruginosa 15040; Pseudomonas aeruginosa, 15040, Concomitant (ME:SM = 2:1) | P. aeruginosa 15040; Pseudomonas aeruginosa, 15040, alone | P. aeruginosa 13224; Pseudomonas aeruginosa, 13224, Concomitant (ME:SM = 1:1) | P. aeruginosa 13224; Pseudomonas aeruginosa, 13224, Concomitant (ME:SM = 2:1) | P. aeruginosa 13224; Pseudomonas aeruginosa, 13224, alone | [1]; SPP.13982, Concomitant (ME:SM = 2:1)
0.063 µg/mL: P. aeruginosa 12790; Pseudomonas aeruginosa, 12790, Concomitant (ME:SM = 1:1), read-out: MIC | P. aeruginosa 12790; Pseudomonas aeruginosa, 12790, Concomitant (ME:SM = 1:4), read-out: MIC | P. aeruginosa 12790; Pseudomonas aeruginosa, 12790, alone, read-out: MIC | Acinetobacter spp. 1195; SPP.1195, Concomitant (ME:SM = 1:4), read-out: MIC
0.031 µg/mL: P. aeruginosa 12790; Pseudomonas aeruginosa, 12790, Concomitant (ME:SM = 2:1), read-out: MIC
0.125 µg/mL: P. aeruginosa 12790; Pseudomonas aeruginosa, 12790 | Acinetobacter spp. 1195; SPP.1195
2 µg/mL: P. aeruginosa 13269; Pseudomonas aeruginosa, 13269, Concomitant (ME:SM = 1:2) | P. aeruginosa 13269; Pseudomonas aeruginosa, 13269, Concomitant (ME:SM = 1:4) | P. aeruginosa 15032; Pseudomonas aeruginosa, 15032, Concomitant (ME:SM = 1:1) | P. aeruginosa 15032; Pseudomonas aeruginosa, 15032, Concomitant (ME:SM = 1:4) | P. aeruginosa 15032; Pseudomonas aeruginosa, 15032, Concomitant (ME:SM = 2:1) | P. aeruginosa 15032; Pseudomonas aeruginosa, 15032, alone | P. aeruginosa 15036; Pseudomonas aeruginosa, 15036, Concomitant (ME:SM = 1:1) | P. aeruginosa 15036; Pseudomonas aeruginosa, 15036, Concomitant (ME:SM = 1:4) | P. aeruginosa 15036; Pseudomonas aeruginosa, 15036, Concomitant (ME:SM = 2:1) | P. aeruginosa 15036; Pseudomonas aeruginosa, 15036, alone | P. aeruginosa 13272; Pseudomonas aeruginosa, 13272, Concomitant (ME:SM = 1:2) | P. aeruginosa 13272; Pseudomonas aeruginosa, 13272, Concomitant (ME:SM = 1:4) | P. aeruginosa 13245; Pseudomonas aeruginosa, 13245, Concomitant (ME:SM = 1:1) | P. aeruginosa 13245; Pseudomonas aeruginosa, 13245, Concomitant (ME:SM = 1:4) | P. aeruginosa 13245; Pseudomonas aeruginosa, 13245, Concomitant (ME:SM = 2:1) | P. aeruginosa 13245; Pseudomonas aeruginosa, 13245, alone | P. aeruginosa 15040; Pseudomonas aeruginosa, 15040, Concomitant (ME:SM = 1:2) | P. aeruginosa 15040; Pseudomonas aeruginosa, 15040, Concomitant (ME:SM = 1:4) | P. aeruginosa 13224; Pseudomonas aeruginosa, 13224, Concomitant (ME:SM = 1:2) | P. aeruginosa 13224; Pseudomonas aeruginosa, 13224, Concomitant (ME:SM = 1:4) | [1]; SPP.13982, Concomitant (ME:SM = 1:1) | [1]; SPP.13982, Concomitant (ME:SM = 1:2)
8 µg/mL: P. aeruginosa 15039; Pseudomonas aeruginosa, 15039, Concomitant (ME:SM = 1:1) | P. aeruginosa 15039; Pseudomonas aeruginosa, 15039, Concomitant (ME:SM = 1:2) | P. aeruginosa 15039; Pseudomonas aeruginosa, 15039, Concomitant (ME:SM = 2:1) | P. aeruginosa 15039; Pseudomonas aeruginosa, 15039, alone | P. aeruginosa 13280; Pseudomonas aeruginosa, 13280, Concomitant (ME:SM = 2:1) | P. aeruginosa 13280; Pseudomonas aeruginosa, 13280, alone
32 µg/mL: [1]; SPP.13982, alone
1 µg/mL: P. aeruginosa 15032; Pseudomonas aeruginosa, 15032, Concomitant (ME:SM = 1:2) | P. aeruginosa 15036; Pseudomonas aeruginosa, 15036, Concomitant (ME:SM = 1:2) | P. aeruginosa 13245; Pseudomonas aeruginosa, 13245, Concomitant (ME:SM = 1:2) | [1]; SPP.13982, Concomitant (ME:SM = 1:4)
